This note sets out measurements from patent publication US20260027123A1, “Compositions for Modulating Lipoxygenase and Methods of Using Same” (The Regents of the University of California, priority 2022, published 2026).

Format in all cases: physicochemical
The nature of data set [1]: Soluble after 24 hours at room temperature. Particulars: Table 2, 20/80 DMA/PEG400.
Data set [2] in a line: Absorbance spectrometry at 340 nm to characterize solubility in each solvent mixture (measured concentration). Particulars: Table 2. The protocol:
(§1) Compositions were generally prepared by mixing with solvent and sonicated at room temperature in a water bath for 10 minutes. After a 15 minute waiting period at room temperature, the composition was sonicated again for 15 minutes at room temperature. Table 1 provides a list of formulations prepared for Compound 27332 according to certain embodiments. Table 2 provides a list of formulations prepared for 5-(methylamino)-2-naphthalen-1-yl-1,3-oxazole-4-carbonitrile (Compound ML351) according to certain embodiments. Compositions were analyzed by absorbance spectrometry at 340 nm to characterize the solubility of the compounds in each solvent mixture. Measurements were taken using a Cary60 spectrophotometer. Briefly, 2 ml absolute EtOH was added to cuvette, and instrument blanked. Then 2 μl of the excipient buffer was added, and scanned from 450 nm to 200 nm in order to confirm no large/interfering peak at 340 nm. Next, 2 μl of […] (in absolute EtOH) was added to the cuvette and scanned (450 nm to 200 nm)—this was repeated twice more for a total of three measurements. The difference in Abs(340) was determined for each subsequent addition. These three measurements were used to calculate the concentration (in molarity) using previously determined epsilon, and converted back to mg/ml.

Data set [3] can be described thus: Compositions prepared by mixing with solvent and sonication; soluble yes/no. Particulars: Table 2. The protocol:
as §1

Data set [4] can be described thus: Viscosity of the composition. Particulars: Table 2.
Where [5] appears, read: 20/80 DMA/PEG400, Approx Conc. 50 mg/ml.
Where [6] appears, read: 20/80 DMA/PEG400, Approx Conc. 78.1 mg/ml.
The mark [7] stands for this setting: 20/80 DMA/PEG400, Approx Conc. 90.5 mg/ml.
The mark [8] stands for this setting: 20/80 Diethylacetamide/PEG400, Approx Conc. 50 mg/ml.
Setting [9] is: Intralipid, Approx Conc. 0.250 mg/ml.

“And” between values parts separate entries of the source, which are not always exact repeats. Identical values can stand only once.

Take `CNc1oc(-c2cccc3ccccc23)nc1C#N` [ML351, 5-(methylamino)-2-naphthalen-1-yl-1,3-oxazole-4-carbonitrile]: the “Soluble after 24 hours at Room Temperature” value in data set [1] (Approx Conc. 50 mg/ml) and in data set [1] (Approx Conc. 78.1 mg/ml) was “yes” in each case. In addition, the “Measured Conc.” value in data set [2] (setting [5]) was 46.1 mg/mL; in data set [2] (setting [6]), 75.7 mg/mL; in data set [2] (setting [7]), 66.3 mg/mL and 54.9 mg/mL; in data set [2] (setting [8]), 52.5 mg/mL and 45.5 mg/mL; in data set [2] (setting [9]) it was 0.315 mg/mL. In addition, the Soluble entry in data set [3] (setting [5]) was “yes”; in data set [3] (setting [6]), “yes”; in data set [3] (setting [7]) it was “No”; in data set [3] (setting [8]), “yes”; in data set [3] (setting [9]), “yes”. Further, the Viscosity entry in data set [4] (setting [5]), in data set [4] (setting [6]), in data set [4] (setting [7]), in data set [4] (setting [8]) and in data set [4] (setting [9]) was “low” each time.
